Ki data for 29 molecules are collected here from patent US20060252698A1, “Compounds for inhibiting cathepsin activity” (priority 2005, published 2006).

Starred links: 1 amine or outer side, 2 acyl side, 3 side chain; linkers in the order of their positions; H or OH if unused. Non-standard residues stand in square brackets, D forms with d. Residues, ends and D or L forms follow the SMILES beside them. *: point of attachment. Pro(3S,4R-methano) = O=C(O)[C@H]1NC[C@@H]2C[C@@H]21; Isobutyloxycarbonyl = CC(C)COC(=O)*; X3 = C=CCCC(N[*:1])C(=O)C(=O)[*:2]; Hyp = O=C(O)[C@@H]1C[C@@H](O)CN1; X2 = CCCC(N[*:1])C(=O)C(=O)[*:2]; Tic = O=C(O)[C@@H]1Cc2ccccc2CN1; Chg = N[CH](C(=O)O)C1CCCCC1; Phg = N[CH](C(=O)O)c1ccccc1; Tle = CC(C)(C)[C@H](N)C(=O)O; Boc = CC(C)(C)OC(=O)*; CO = O=C([*:1])[*:2]; X1 = CC1(N*)CCCCC1; tBu = CC(C)(C)*

The experiment concerns the target T1, Human Liver Cathepsin L (Homo sapiens, UniProt P07711).
T1 construct: purchased Calbiochem 219402
The experiment can be described thus: Cathepsin L inhibition assay (kinetic, Z-Phe-Arg-pNA substrate). In kind it is biochemical. Conditions: Z-Phe-Arg-pNA 120 μM, enzyme 12 nM, pH 5.5, read at 410 nm. The protocol:
Cathepsin Assay Protocols:
• 1. 96-well Round or V-bottom microplates for dilutions • 2. 96-well COSTAR UV microplates for assay (COSTAR cat.#3635) • 3. Bio-Spin 6 Chromatography Columns (BIO-RAD cat.#732-6002). • 4. 12-75 mm test tubes • 5. Falcon 50 ml tubes • 6. Falcon 14 ml tubes • 7. 1.5 ml eppendorf tube • 8. ≦10 ml buffer reservoir Reagents: • 1. Enzyme: Cathepsin G, M.W.23,500, 10 μM stock. • 2. Substrate:Suc-Ala-Ala-Pro-Phe-pNA, M.W. 624.65, prep. 100 mM [62.465 mg/ml] stock. • 3. Buffer: [50 mM HEPES, 500 mM NaCl, 5 μM EDTA, pH 7.14], 5 μM DTT Instrument Settings: SpectraMax Plus • 1. Kinetic assay reading@405 nm • 2. Read interval: 30 seconds • 3. Time: 1 hour • 4. OD Min: −0.001 • 5. OD Max: 0.5 • 6. Data Mode: Absorbance • 7. e405=194.078 μM/O.D. Procedure: • 1. Add 73 μl of buffer to all wells. • 2. Add […] of buffer to (−E) controls. • 3. Add 7 μl of sample and/or DMSO for controls to appropriate wells. • 4. Prep. substrate: 100 mM (62.465 mg/ml) stock in 100% DMSO. • 5. Dilute 1:20 in buffer. 75 μl in 1.425 ml. 5 mM final. • 6. Add 20 μl of 5 mM substrate to all wells. 500 μM final. • 7. Dilute enzyme (1:50) in buffer; Add 120 μl to 5,880 μl buffer. 2×[200 nM] final. • 8. Add 100 μl of 2× [200 nM] enzyme to assigned wells, except (−E) controls. [100 nM] final. • 11. Vortex 20 seconds. Read@ 405 nM every 30 seconds for 1 hour on SpectraMax Plus • Endpoint assay reading plate@ 600 nM. Used for the detection of precipitation. Cathepsin H: Materials: • 1. 96-well Round or V-bottom microplates for dilutions • 2. 96-well COSTAR UV microplates for assay (COSTAR cat.#3635) • 3. Bio-Spin 6 Chromatography Columns (BIO-RAD cat.#732-6002) • 4. 12-75 mm test tubes • 5. Falcon 50 ml tubes • 6. Falcon 14 ml tubes • 7. 1.5 ml eppendorf tube • 8. ≧10 ml buffer reservoir Reagents: • 1. Enzyme: Cathepsin H, M.W.28,000, 9.07 μM stock. • 2. Substrate:H-Arg-pNA, M.W. 367.2, prep. 50 mM [18.36 mg/ml] stock. • 3. Buffer: [100 mM NaP04, 1 mM EDTA, 1 mM DTT, pH 6.5 Instrument Settings: SpectraMax Plus • 1. Kinetic assay reading@410 nM • 2. Read interval: 30 seconds • 3. Time: 1 hour • 4. OD Min: −0.001 • 5. OD Max: 0.05 • 6. Data Mode: Absorbance • 7. e410=188.415 μM/O.D. Km=108±5 μM Procedure: • 1. Prep. substrate: 50 mM (18.36 mg/ml) stock in 100% DMSO. • 2. Add 73 μl of buffer to all wells. • 3. Add 7 μl of sample to appropriate wells: a.) 100% DMSO for (+E) & (−E) controls. • 4. Add 100 μl of buffer to (−E) controls. • 5. Dilute substrate (1:20) in buffer; Add 140 μl to 2.66 ml buffer while vortexing. [2.5 mM] final. • 6. Add 20 μl of substrate to all wells. Vortex 3-5 seconds. [250 μM] final. • 7. Dilute enzyme (1:64.8) in buffer; Add 179 μl to 11.418 ml buffer. 2× [140 nM] final. • 8. Add 100 μl of 2× [140 nM] enzyme to assigned wells, except (−E) controls. [70 nM] final. • 9. Read@410 nM every 30 seconds for 1 hour on SpectraMax Plus Cathepsin L: Materials: • 1. 96-well Round or V-bottom microplates for dilutions • 2. 96-well COSTAR UV microplates for assay (COSTAR cat.#3635) • 3. Falcon 50 ml tubes • 4. Falcon 14 ml tubes • 5. 1.5 ml eppendorf tube • 6. 10 ml buffer reservoir Reagents: • 1. Enzyme: Calbiochem #219402: Cathepsin L, M.W.29,000, 11.62 μM stock. Lot#B45683 • 2. Substrate: Bachem #L-1242: Z-Phe-Arg-pNA, M.W. 612.09, prep. 4.8 mM [2.938 mg/ml] stock in 100% DMSO. • 3. Buffer: [100 mM NaP04, 1 mM EDTA, pH 5.5] Supplement buffer w/1 mM DTT, day of assay. Experiment #1: • Instrument settings: SpectraMax Plus microtiter plate reader (Molecular Devices, Sunnydale, Calif.) • 1. Kinetic assay reading@410 nM • 2. Read interval: 30 seconds • 3. Time: 1 hour • 4. OD Min: −0.001 • 5. OD Max: 0.05 • 6. Data Mode: Absorbance • 7. ε410=161.311 μM/O.D. Km=56±8 μM Procedure: • 1. Add 88 μl of buffer to all wells. • 2. Add 7 μl of sample or 100% DMSO to appropriate wells. • 3. Add 100 μl of buffer to (−E) controls. • 5. Add 5 μ 4.8 mM] substrate to all wells. [120 μM] final. • 6. Vortex 3-5 seconds. • 7. Dilute enzyme (1:483.87) in buffer; Add 24.8 μl to 12,000 μl buffer. 2×[24 nM] final. • 8. […]

T1 sequence (P07711 114-288 limits assumed): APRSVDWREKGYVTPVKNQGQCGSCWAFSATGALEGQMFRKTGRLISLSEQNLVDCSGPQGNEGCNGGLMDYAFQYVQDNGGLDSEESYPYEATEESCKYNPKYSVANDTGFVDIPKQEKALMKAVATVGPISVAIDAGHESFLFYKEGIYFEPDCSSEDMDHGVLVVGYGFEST
T1 sequence (P07711 292-333 limits assumed): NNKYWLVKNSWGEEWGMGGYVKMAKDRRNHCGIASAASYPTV

Molecule `CCCC[C@H](NC(=O)[C@@H]1[C@@H]2[C@H](CN1C(=O)[C@@H](NC(=O)NC1(CS(=O)(=O)C(C)(C)C)CCCCC1)C1(C)CCCCC1)C2(C)C)C(=O)C(=O)NC1CC1` returned a Ki of 11 nM.
The value for `CC(C)(C)OC(=O)N[C@H](C(=O)N1C[C@H]2[C@@H]([C@H]1C(=O)NC(CC1CC1)C(=O)C(N)=O)C(C)(C)C2(C)C)C1CCCCC1` (some centres unmarked) was 220 nM; that for `C=CCCC(NC(=O)[C@H]1C(C(=O)[C@@H](NC(=O)OC(C)(C)C)C2CCCCC2)C[C@@H]2C[C@@H]21)C(=O)C(=O)NCC=C` (some centres unmarked) was 1500 nM.
`CC(C)(C)OC(=O)N[C@H](C(=O)N1CCC[C@H]1C(=O)NC(CC1CCC1)C(=O)C(N)=O)C(C)(C)C` (some centres unmarked): the Ki worked out at 1900 nM.
Molecule `CCCC(NC(=O)[C@@H]1[C@@H]2CCN1C(=O)[C@H](C(C)(C)C)NC(=O)Cc1cccc(c1)OCCCO2)C(=O)C(=O)NCC(=O)N[C@H](C(=O)N(C)C)c1ccccc1` (some centres unmarked) showed a Ki of 70 nM.
Then `CCC1C[C@]1(NC(=O)[C@@H]1C[C@H](Oc2cc(-c3ccccc3)nc3cc(OC)ccc23)CN1C(=O)[C@@H](NC(=O)OC(C)(C)C)C(C)C)C(=O)O` (some centres unmarked), with 100 nM; and `CCCC(NC(=O)[C@@H]1C[C@@H]2CN1C(=O)C(C1CCCCC1)NC(=O)Cc1cccc(c1)OCCCC(C)(C)C2)C(=O)C(N)=O` (some centres unmarked), with 17 nM.
Molecule `CN(C)C(=O)c1nc(CNC(=O)C(=O)C(CC2CCC2)NC(=O)[C@@H]2[C@@H]3[C@H](CN2C(=O)[C@@H](NC(=O)NC(C)(C)C)C(C)(C)C)C3(C)C)sc1-c1ccccc1` (some centres unmarked) came in with a Ki of 190 nM.
The value for `CC(C)(C)NC(=O)N[C@H]1CCCCCCCCCC[C@@H](C(=O)C(N)=O)NC(=O)[C@@H]2[C@@H]3[C@H](CN2C1=O)C3(C)C` was 300 nM; that for `CC(C)(C)OC(=O)N[C@H]1CCCCCCCC[C@@H](C(=O)C(N)=O)NC(=O)[C@@H]2[C@@H]3[C@H](CN2C1=O)C3(C)C` was 550 nM.
Regarding `C=CCNC(=O)C(=O)C(CCC)NC(=O)[C@@H]1CCCN1C(=O)[C@@H](NC(=O)NC1(CS(C)(=O)=O)CCCCC1)C(C)(C)C` (some centres unmarked), the Ki worked out at 740 nM.
Then `C=CCCC(NC(=O)[C@@H]1[C@H]2C[C@H]2CN1C(=O)[C@@H](NC(=O)OC(C)(C)C)C1CCCCC1)C(=O)C(=O)NCC(=O)N[C@H](C(=O)N(C)C)c1ccccc1` (stereo partly drawn) (Boc-[Chg][Pro(3S,4R-methano)][X3]G[Phg]-NMe2), with 270 nM; and `CCCC(NC(=O)[C@@H]1Cc2ccccc2CN1C(=O)[C@@H](NC(=O)OC(C)(C)C)C1CCCCC1)C(=O)C(=O)NCC(=O)N[C@H](C(=O)NC)c1ccccc1` (some centres unmarked) (Boc-[Chg][Tic][X2]G[Phg]-NHMe), with 36 nM.
Then `CCCC(NC(=O)C(CC(C)C)NC(=O)C(NC(=O)OCC(C)C)C1CCCCC1)C(=O)C(=O)NCC(=O)NC(C(N)=O)c1ccccc1` (centres unmarked) (Isobutyloxycarbonyl-[Chg]L[X2]G[Phg]-NH2; configuration not given here), with 2 nM; and `CCCC(NC(=O)[C@@H]1C[C@@H](OC(C)(C)C)CN1C(=O)[C@@H](NC(=O)NC1(C)CCCCC1)C(C)(C)C)C(=O)C(=O)NCC(=O)N[C@H](C(=O)N(C)C)c1ccccc1` (some centres unmarked) ({X1-CO}-[Tle][Hyp](tBu)[X2]G[Phg]-NMe2), with 170 nM.
The value for `CCCC[C@H](NC(=O)[C@@H]1[C@@H]2[C@H](CN1C(=O)[C@@H](NC(=O)NC1(CS(=O)(=O)C(C)(C)C)CCCCC1)C(C)(C)C)C2(C)C)C(=O)C(=O)NC1CC1` [drawing 652] was 7 nM; that for `C=CCNC(=O)C(=O)[C@@H]1CCCCCCCCC[C@H](NC(=O)NC2(CS(=O)(=O)C(C)(C)C)CCCCC2)C(=O)N2C[C@H]3[C@@H]([C@H]2C(=O)N1)C3(C)C` [drawing 653] was 10 nM.
`CC(C)(C)[C@H](NC(=O)NC1(CS(=O)(=O)C(C)(C)C)CCCCC1)C(=O)N1C[C@H]2[C@@H]([C@H]1C(=O)N[C@@H](CCC1CC1)C(=O)C(=O)NC1CC1)C2(C)C` [drawing 662] came in with an inhibition constant (Ki) of 25 nM.
The value for `CCCC[C@H](NC(=O)[C@@H]1[C@@H]2[C@H](CN1C(=O)[C@@H](NC(=O)NC1(CS(=O)(=O)C(C)(C)C)CCCCC1)C(C)(C)C)C2(C)C)C(=O)C(=O)NC1CC1` [drawing 667] was 40 nM; that for `C=CCNC(=O)C(=O)[C@H](CCC1CC1)NC(=O)[C@@H]1[C@@H]2[C@H](CN1C(=O)[C@@H](NC(=O)NC1(CS(=O)(=O)C(C)(C)C)CCCCC1)C(C)(C)C)C2(C)C` [drawing 669] was 40 nM.
The molecule `C=CCNC(=O)C(=O)[C@H](CCC1CC1)NC(=O)[C@@H]1[C@@H]2[C@H](CN1C(=O)[C@@H](NC(=O)NC1(CS(=O)(=O)C(C)(C)C)CCCCC1)C(C)(C)C)C2(C)C` [drawing 670] gave a Ki of 45 nM.
With `CC(C)(C)[C@H](NC(=O)NC1(CS(=O)(=O)C(C)(C)C)CCCCC1)C(=O)N1C[C@H]2[C@@H]([C@H]1C(=O)N[C@@H](CCC1CC1)C(=O)C(=O)NC1CC1)C2(C)C` [drawing 671], affinity was put at a Ki of 47 nM.
Then `C=CCNC(=O)C(=O)[C@H](CCCC)NC(=O)[C@@H]1[C@@H]2[C@H](CN1C(=O)[C@@H](NC(=O)NC1([C@H]3CCCS3(=O)=O)CCCCC1)C(C)(C)C)C2(C)C` [drawing 672], with 49 nM.
In the case of `C=CCNC(=O)C(=O)[C@H](CCCC)NC(=O)[C@@H]1[C@@H]2[C@H](CN1C(=O)[C@@H](NC(=O)NC1([C@H]3CCCS3(=O)=O)CCCCC1)C(C)(C)C)C2(C)C` [drawing 681], the affinity, expressed as Ki, was 140 nM.
The value for `CC(=O)N[C@@H](CC(C)C)C(=O)N[C@@H](CC(C)C)C(=O)N[C@H](C=O)CCCNC(=N)N` [drawing 687] was 9 nM.
In turn, `CC(=O)N[C@@H](CC(C)C)C(=O)N[C@@H](CC(C)C)C(=O)N[C@H](C=O)CCCNC(=N)N` [drawing 688] came in with a Ki of 1.9 nM.
Molecule `CC(=O)N[C@@H](CC(C)C)C(=O)N[C@@H](CC(C)C)C(=O)N[C@H](C=O)CCCNC(=N)N` [drawing 689] had a Ki of 8 nM.
Then `C=CCNC(=O)C(=O)[C@@H]1CCCCCCCCC[C@H](NC(=O)NC2(CS(=O)(=O)C(C)(C)C)CCCCC2)C(=O)N2C[C@H]3[C@@H]([C@H]2C(=O)N1)C3(C)C` [drawing 699], with 60 nM; and `CC(=O)N[C@@H](CC(C)C)C(=O)N[C@@H](CC(C)C)C(=O)N[C@H](C=O)CCCNC(=N)N` [drawing 710], with 4.8 nM.
